# Results from ChEMBL document CHEMBL3639215, “Piperazine compound having a PGDS inhibitory effect” (2014).
# Target: Hematopoietic prostaglandin D synthase (Homo sapiens, UniProt O60760)
# Assay: Inhibiting Action: The test was carried out according to the method of Urade, Y. et al. (J. Biol. Chem., 262, 3820-3825, (1987)). More specifically, the reaction mixture (49 μL) containing 100 mM Tris-HCl (pH 8.0), 1 mM reduced glutathione, 0.1 mg/mL γ-globulin, and human H-PGDS (q.s.), and a compound (final concentration: 0.01-100 μM) was preincubated at 25C. for 5 minutes. A DMSO solution (final concentration: 1%) was added to the solvent control group. Subsequently, 1 μL of [14C] prostaglandin H2 (final concentration: 10 μM) was added to start the reaction. One minute after the start of the reaction, 250 μL of a reaction stop solution (diethylether/methanol/1 M citric acid (30/4/1) at a temperature of −20C. was added to stop the reaction. After the reaction was stopped, 50 μL of the upper-layer portion (organic solvent layer) was applied to a TLC plate and developed at −20C. for 45 minutes (developing solvent: diethylether/methanol/acetic acid (90/2/1)).
# Hematopoietic prostaglandin D synthase, sequence (O60760 whole entry): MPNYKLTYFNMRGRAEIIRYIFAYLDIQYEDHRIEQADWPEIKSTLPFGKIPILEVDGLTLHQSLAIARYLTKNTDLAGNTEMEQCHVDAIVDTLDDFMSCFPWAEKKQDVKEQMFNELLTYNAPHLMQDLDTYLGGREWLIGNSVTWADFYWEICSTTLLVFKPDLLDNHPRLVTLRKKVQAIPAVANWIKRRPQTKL
row,SMILES,IC50 [nM]
1,O=C(Nc1nc2ccc(Br)cc2s1)N1CCN(C(=O)c2cccc(F)c2)CC1,106
2,Cc1cc2nc(NC(=O)N3CCN(C(=O)c4cccc(F)c4)CC3)sc2cc1C,222
3,Cc1ccc2nc(NC(=O)N3CCN(C(=O)c4cccc(F)c4)CC3)sc2c1,260
4,COc1ccc2nc(NC(=O)N3CCN(C(=O)c4cccc(F)c4)CC3)sc2c1,318
5,O=C(Nc1nc2ccc(Cl)cc2s1)N1CCN(C(=O)c2cccc(F)c2)CC1,204
6,O=C(NCCN1CCOCC1)c1ccc(N2CCC(NC(=O)N3CCN(C(=O)c4ccc[nH]4)CC3)CC2)cc1,334
7,Cc1cc(C)c(C(=O)N2CCN(C(=O)NC3CCN(c4ccc(C(=O)NCCN5CCOCC5)cc4)CC3)CC2)[nH]1,> 1000
8,Cn1ccc(C(=O)N2CCN(C(=O)NC3CCN(c4ccc(C(=O)NCCN5CCOCC5)cc4)CC3)CC2)c1,> 1000
9,O=C(NCCN1CCOCC1)c1ccc(N2CCC(NC(=O)N3CCN(C(=O)c4cccs4)CC3)CC2)cc1,201
10,O=C(NCCN1CCOCC1)c1ccc(N2CCC(NC(=O)N3CCN(C(=O)c4ccsc4)CC3)CC2)cc1,327
11,O=C(NCCN1CCOCC1)c1ccc(N2CCC(NC(=O)N3CCN(C(=O)c4ccco4)CC3)CC2)cc1,445
12,O=C(NCCN1CCOCC1)c1ccc(N2CCC(NC(=O)N3CCN(C(=O)c4ccoc4)CC3)CC2)cc1,> 1000
13,O=C(NCCN1CCOCC1)c1ccc(N2CCC(NC(=O)N3CCN(C(=O)c4ccno4)CC3)CC2)cc1,> 1000
14,Cn1ccnc1C(=O)N1CCN(C(=O)NC2CCN(c3ccc(C(=O)NCCN4CCOCC4)cc3)CC2)CC1,> 1000
15,O=C(NCCN1CCOCC1)c1ccc(N2CCC(NC(=O)N3CCN(C(=O)C4CCCC4)CC3)CC2)cc1,> 1000
16,O=C(NCCN1CCOCC1)c1ccc(N2CCC(NC(=O)N3CCN(C(=O)c4ccccc4)CC3)CC2)cc1,249
